Measurements: article PMC12156344, “Furin-Triggered Peptide Self-Assembly Activates Coumarin Excimer Fluorescence for Precision Live-Cell Imaging” (Molecules, 2025)
Peptide text beside a SMILES is read from it. * marks the point of attachment. DEAC = CCN(CC)c1ccc2cc(C(=O)*)c(=O)oc2c1

Columns and labels:
[1] = Transmission electron microscopy (TEM) of self-assembly; type: physicochemical; conditions: aqueous solution, particle size distribution histogram (Figure 3b, S10)
Source text: (§1) Next, we examined the factors driving excimer formation. […] […].

[2] = Dynamic light scattering (DLS); type: physicochemical; conditions: solution; DLS (Figure S11)
Source text: as §1

[3] = Concentration-dependent fluorescence (excimer formation) in furin working buffer; type: physicochemical; conditions: under UV irradiation (365 nm lamp)
Method: In the next phase, we investigated the optical properties of RF-Cou and its enzymatic product F-Cou. […] In contrast, as the concentration increased, a new emission peak around 550 nm gradually emerged in the fluorescence spectra of F-Cou. […] These observations confirmed the formation of Cou excimers.
Figure 2 The fluorescence emission spectra and images of RF-Cou (a,c) and F-Cou (b,d) at different concentrations in furin working buffer. […] The fluorescence spectra were conducted with the excitation of 430 nm and the slit width of 5 nm. The fluorescence images were taken under the 365 nm UV lamp irradiation.

[4] = not given; remark: listed apart in the source
[5] = not given; remark: listed apart in the source
[6] = not given; remark: listed apart in the source
[7] = Critical micelle concentration (CMC) measurement by transmittance; conditions: furin working buffer
Method: The transmittance spectra of the solutions were measured using a UV-3600 spectrophotometer (SHIMADZU, Kyoto, Japan).

[8] = not given; remark: listed apart in the source
furin = furin (Homo sapiens, UniProt P09958); type: biochemical; conditions: 200 μM with 50 U/mL furin, 37 °C, 12 h
Method: Based on the above in vitro experiments, we concluded that RF-Cou existed as a blue fluorescent monomer in aqueous solution. […] These findings validated the feasibility of using RF-Cou for subsequent precision live-cell imaging studies of furin activity.
Figure 3 (a) Fluorescence decay profiles of the first emission peak at 475 nm (blue) and the last emission peak at 550 nm (green) of 200 μM F-Cou; λex = 405 nm. (b) TEM image of F-Cou. Inset: the particle size distribution histogram. (c) LC-MS traces of 200 μM RF-Cou incubated with or without 50 U/mL furin at 37 °C for 12 h. The blue line corresponds to the probe RF-Cou, and the green line represents its cleavage product F-Cou. TEXT PRINTED IN THE PICTURE: (a) no label printed: First peak at 475 nm <τ> = 4.26 ns; Last peak at 550 nm <τ> = 10.73 ns | (b) no label printed: d = 51.1 ± 9.8 nm

[9] = system: normal mouse fibroblast L929 cells; type: cell-based; conditions: 200 µM
Method: 4T1 mouse breast cancer cells or L929 mouse fibroblast cells were cultured in RPMI-1640 medium or Dulbecco’s Modified Eagle’s medium (DMEM) supplemented with 10% v/v FBS, 100 U/mL penicillin, 100 μg/mL streptomycin, and 0.25 μg/mL amphotericin B, respectively. These cells were incubated at 37 °C in a humidified atmosphere of 5% CO2. First, the cells (4T1, L929 cell lines) were seeded in 96-well plates (3 × 10^3 cells in each well) and incubated in a 37 °C cell incubator for 24 h. The RPMI-1640 medium or DMEM was replaced with different concentrations of RF-Cou (0, 1.5, 3.1, 6.2, 12.5, 25.0, 50.0, 100, and 200 μM) in the medium and incubated for 24 h or 48 h, respectively. MTT (5 mg/mL, 10 μL) was then added to each well, and the cells were incubated for another 4 h. The formed formazan crystals were dissolved by DMSO (100 μL per well), and the absorbance at 570 nm was measured using a microplate reader (BioTek, Winooski, VT, USA).

[10] = system: furin-overexpressing 4T1 tumor cells; assay: Confocal live-cell fluorescence imaging of furin activity, 4T1 cells; type: cell-based, mouse; conditions: 200 μM
Method: (§2) 4T1 cells or L929 cells were seeded on confocal dishes (1 × 10^5 cells/dish) and incubated at 37 °C in a humidified atmosphere of 5% CO2 for 24 h. Following the removal of the conditioned medium, 4T1 cells or L929 cells were treated with RF-Cou (200 μM) at various times (0, 0.5, 1, 2, 4, 6, and 8 h). After the incubation was completed, the medium was discarded, PBS was added to clean the cells three times, and laser confocal scanning microscopy was used for cell imaging. To investigate the role of furin in activating excimer fluorescence, 4T1 cells were pre-incubated with 1 mM of furin inhibitor II (Inh) for 30 min and then treated with RF-Cou (200 μM) for 0.5 h or 6 h before imaging.
(§3) Figure 5 (a) Confocal fluorescence images of furin-overexpressing 4T1 cells or normal L929 cells incubated with 200 μM RF-Cou at varying time points; λex = 405 nm, monomer channel (blue) λem = 415–485 nm; excimer channel (green) λem = 520–600 nm; Scale bar: 50 μm. Time-dependent relative fluorescence intensity in monomer and excimer channels of 4T1 (b) or L929 (c) cells, respectively (n = 3, mean ± SD).
Figure 6 (a) Confocal fluorescence images of 4T1 or L929 cells incubated with 200 μM RF-Cou for 0.5 h or 6 h after being treated with or without furin inhibitor (Inh); λex = 405 nm, monomer channel (blue) λem = 415–485 nm; excimer channel (green) λem = 520–600 nm; Scale bar: 50 μm. Fluorescence intensity in monomer and excimer channels of 4T1 (b) or L929 (c) cells, respectively (n = 3, mean ± SD). Flow cytometry results of the excimer channel fluorescence in 4T1 (d) or L929 (e) incubated with 200 μM RF-Cou for 6 h after being treated with or without Inh.

L929 normal cells = assay: Confocal live-cell fluorescence imaging, L929 cells; type: cell-based, mouse; conditions: 200 μM
Method: as §2, §3
Figure 6 (a) Confocal fluorescence images of 4T1 or L929 cells incubated with 200 μM RF-Cou for 0.5 h or 6 h after being treated with or without furin inhibitor (Inh); λex = 405 nm, monomer channel (blue) λem = 415–485 nm; excimer channel (green) λem = 520–600 nm; Scale bar: 50 μm. […]

Sequence of furin (P09958 108-794, species assumed): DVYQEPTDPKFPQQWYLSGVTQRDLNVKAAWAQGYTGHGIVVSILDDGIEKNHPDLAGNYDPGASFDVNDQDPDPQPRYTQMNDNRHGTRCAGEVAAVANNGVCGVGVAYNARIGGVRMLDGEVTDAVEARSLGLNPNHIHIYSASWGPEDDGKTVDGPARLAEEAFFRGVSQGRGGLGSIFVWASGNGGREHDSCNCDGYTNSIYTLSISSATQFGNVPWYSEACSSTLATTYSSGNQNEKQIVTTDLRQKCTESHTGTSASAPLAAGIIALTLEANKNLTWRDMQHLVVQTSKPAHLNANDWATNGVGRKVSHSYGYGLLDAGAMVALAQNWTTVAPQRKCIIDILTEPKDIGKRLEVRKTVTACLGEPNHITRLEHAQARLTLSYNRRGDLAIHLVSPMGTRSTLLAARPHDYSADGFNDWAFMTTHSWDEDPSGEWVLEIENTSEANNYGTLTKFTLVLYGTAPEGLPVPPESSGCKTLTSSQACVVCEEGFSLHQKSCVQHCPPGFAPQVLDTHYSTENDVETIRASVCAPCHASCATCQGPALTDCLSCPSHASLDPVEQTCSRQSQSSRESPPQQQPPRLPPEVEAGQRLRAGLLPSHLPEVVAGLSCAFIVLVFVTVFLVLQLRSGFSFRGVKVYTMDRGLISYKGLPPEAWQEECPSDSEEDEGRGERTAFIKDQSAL

Q: Which “Nanoparticle diameter by TEM” value [1] does the source give for `CCN(CC)c1ccc2cc(C(=O)NCCCC[C@H](N)C(=O)N[C@@H](Cc3ccccc3)C(=O)N[C@@H](Cc3ccccc3)C(=O)O)c(=O)oc2c1` [F-Cou, Lys(Cou)-Phe-Phe-OH] here?
A: 51.1 ± 9.8 nm

Q: And the “Hydrodynamic diameter by DLS” value [2]?
A: 69.2 ± 18.4 nm

Q: And the “Concentration above which the solution changes from blue to green (excimer formation)” value [3]?
A: exceeded 31.25 μM

Q: What about the maximum absorption peak of the same molecule?
A: 430 nm

Q: What about the logP (physchem) of the same molecule?
A: 1.15

Q: What about the fluorescence lifetime <τ>, 475 nm emission peak [4] of the same molecule?
A: 4.26 ns

Q: What about the fluorescence lifetime <τ>, 550 nm emission peak [5] of the same molecule?
A: 10.7 ns

Q: And the fold enhancement of fluorescence lifetime, 550 nm vs 475 nm band [6]?
A: 2.5 fold

Q: What about the “Critical micelle concentration (CMC)” value ([7]; transmittance-concentration curve at 600 nm (Figure S9)) of the same molecule?
A: 45.1 µM

Q: For `CCN(CC)c1ccc2cc(C(=O)NCCCC[C@H](NC(=O)[C@H](CCCNC(=N)N)NC(=O)[C@H](CCCNC(=N)N)NC(=O)[C@@H](NC(=O)[C@H](CCCNC(=N)N)NC(C)=O)C(C)C)C(=O)N[C@@H](Cc3ccccc3)C(=O)N[C@@H](Cc3ccccc3)C(=O)O)c(=O)oc2c1` [RF-Cou, Ac-Arg-Val-Arg-Arg-Lys(Cou)-Phe-Phe-OH] (Ac-RVRRK(DEAC)FF-OH), which maximum emission peak [8] is on record?
A: 475 nm

Q: And the “Nanoparticle diameter by TEM” value [1]?
A: no nanoparticle distribution was observed

Q: What about the “Hydrodynamic diameter by DLS” value [2] of the same molecule?
A: no detectable signal corresponding to nanoparticles

Q: What about the “Cleavage by furin, LC-MS” value (furin) of the same molecule?
A: could be enzymatically processed by furin to generate F-Cou

Q: And the Cell viability [9]?
A: over 80%

Q: And the “Excimer fluorescence after furin inhibitor pretreatment” value ([10]; 4T1 cells pretreated with 1 mM furin inhibitor II (Inh) for 30 min, 6 h)?
A: significantly weaker than that in cells without Inh pretreatment

Q: What about the Cellular uptake ([10]; 4T1 cells with or without Inh pretreatment, 0.5 h, confocal fluorescence) of the same molecule?
A: successful cellular uptake

Q: What about the “Excimer channel fluorescence intensity vs monomer channel” value ([10]; 4T1 cells, peak at 6 h, λex 405 nm, excimer 520–600 nm, monomer 415–485 nm, n = 3) of the same molecule?
A: 3.2 fold

Q: And the Cellular uptake (L929 normal cells; 0.5 h, confocal fluorescence)?
A: successful cellular uptake

Q: What about the “Monomer channel fluorescence intensity vs excimer channel” value (L929 normal cells; 6 h, λex 405 nm, excimer 520–600 nm, monomer 415–485 nm, n = 3) of the same molecule?
A: approximately 5.1 fold

Q: And the maximum absorption peak?
A: 430 nm

Q: And the logP (physchem)?
A: -1.46

Q: And the “Transmittance (self-assembly performance)” value ([7]; concentrations up to 800 μM, transmittance at 600 nm, UV-3600 spectrophotometer)?
A: > 95%
